Experimental data from article PMC1802613 (Nucleic Acids Research, 2006).

Biological target: M-PMV NC-dUTPase (Mason-Pfizer monkey virus, UniProt P07570)
Assay: isothermal titration calorimetry
Format: binding

Sequence of M-PMV NC-dUTPase (P07570 526-759): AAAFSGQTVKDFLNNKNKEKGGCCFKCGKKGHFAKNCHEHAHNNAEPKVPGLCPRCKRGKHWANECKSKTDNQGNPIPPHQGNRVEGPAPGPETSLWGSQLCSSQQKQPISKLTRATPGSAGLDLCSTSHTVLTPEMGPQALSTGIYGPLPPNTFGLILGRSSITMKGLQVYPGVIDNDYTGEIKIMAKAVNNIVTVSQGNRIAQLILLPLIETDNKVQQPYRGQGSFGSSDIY

## O=c1ccn([C@H]2C[C@H](O)[C@@H](COP(=O)(O)NP(=O)(O)OP(=O)(O)O)O2)c(=O)[nH]1 [α,β-imino dUTP]
  Kd: 1.2 ± 0.02 µM
